Read-outs that look alike come from different tables or passages of the source.
Conditions: 0.03 mCi/ml, excipient 1 mg/ml in sodium acetate-acetic acid buffer pH 5.80, 25° C.
Description: After drying in an incubator at a temperature of 38° C., the radio-TLC conversion was analyzed at different time points with a radio-TLC reader (Eckert & Ziegler AR-2000) set at High Voltage=1000 (to ensure alpha detection) until the ratio between labeled product and the free Ac225 ion no longer change (typically after 6-8 hours of TLC separation to ensure equilibrium between Ac225 and daughter nuclides).
The formulations were buffered with sodium acetate-acetic acid 0.4 M solution to pH 5.80 (±0.10). […] Sodium L-Ascorbate/L-Ascorbic acid buffer was adjusted to pH 5.80 (±0.10). Water for Injection (WFI) with the same dilution without any excipient is used as the control formulation. The mixture was kept at room temperature (25° C.).

Percentage of ^225Ac present in [^225Ac]Ac-DOTA-TATE (24 hours after mixing)	Percentage of ^225Ac present in [^225Ac]Ac-DOTA-TATE (48 hours after mixing)	Structure (SMILES)
90.20%	82.18%	O=C(O)CC(O)(CC(=O)O)C(=O)O [Citric Acid]
93.45%	87.66%	N[C@H](CS)C(=O)O [D-Cysteine]
95.77%	91.38%	O=C(O)CN(CCN(CC(=O)O)CC(=O)O)CCN(CC(=O)O)CC(=O)O [DTPA, Diethylenetriaminepentaacetic acid]
93.39%	89.58%	CSCC[C@H](N)C(=O)O [L-Methionine]
91.19%	87.41%	CC(=O)N[C@@H](CS)C(=O)O [N-Acetyl-L-Cysteine]
93.08%	87.65%	O=C(O)c1ccccc1O [Salicylic Acid]
–	92.21%	O=C1O[C@H]([C@@H](O)CO)C([O-])=C1O.[Na+] [Sodium Ascorbate, pH 5.8, Sodium Ascorbate]

Structure (SMILES)	Percentage of ^225Ac present in [^225Ac]Ac-DOTA-TATE (24 hours after mixing)	Percentage of ^225Ac present in [^225Ac]Ac-DOTA-TATE (48 hours after mixing)
O=C(O)CCCC[C@@H]1CCSS1 (racemic) [Lipoic Acid]	92.97%	87.93%
CCO [10% EtOH, EtOH]	96.35%	92.16%
N[C@@H](CCC(=O)N[C@@H](CS)C(=O)NCC(=O)O)C(=O)O [L-Glutathione]	91.18%	85.56%
NCCCC[C@H](N)C(=O)O [L-Lysine]	95.45%	89.52%
Oc1ccccc1 [Phenol]	–	87.88%
O=S([O-])O.[Na+] [Sodium Bisulfite]	0%	–
